Assay results as given in patent US20120040951A1, “HETEROARYL COMPOUNDS USEFUL AS RAF KINASE INHIBITORS” (priority 2008, published 2012).
Like-named read-outs stand apart in the source and are kept apart here.

How the values were obtained:
[1] = tested on: phospho-ERK in melanoma derived WM-266-4 cells; assay: Mechanistic cellular assay for Raf kinase activity (phospho-ERK, Bio-Plex); type: cell-based; settings: treated 1-2 hr at 37° C., serum free medium, read-out: pERK EC50
How it was run: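 WM-266-4 melanoma cells (wild-type/V600D BRaf) grown overnight in 10% FBS RPMI, then treated 1–2 h at 37 °C in serum-free RPMI with eight 3-fold dilutions of compound (from 5 mM DMSO stock, 1000× dilution). Lysate phospho-ERK1,2 quantified by Bio-Plex bead immunoassay.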

V599E Raf = V599E Raf (Homo sapiens, UniProt P15056, V600E); assay: Biochemical FRET assay, mutant Raf (phosphorylation of MEK); settings: 0.125 nM V599E Raf, 100 nM biotin-MEK, 25 μM ATP, read-out: Raf (mut) inhibition
How it was run: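 V599E Raf (0.125 nM) preincubated 20 min with inhibitor and 100 nM biotin-MEK in HEPES pH 7.4 with Mg2+/Mn2+, then reacted with 25 μM ATP for 60 min at room temperature. EDTA-stopped; phospho-MEK1/2 (Ser217/221) detected by Eu/APC TR-FRET after 90 min.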

Sequence of V599E Raf (P15056 whole entry V600E): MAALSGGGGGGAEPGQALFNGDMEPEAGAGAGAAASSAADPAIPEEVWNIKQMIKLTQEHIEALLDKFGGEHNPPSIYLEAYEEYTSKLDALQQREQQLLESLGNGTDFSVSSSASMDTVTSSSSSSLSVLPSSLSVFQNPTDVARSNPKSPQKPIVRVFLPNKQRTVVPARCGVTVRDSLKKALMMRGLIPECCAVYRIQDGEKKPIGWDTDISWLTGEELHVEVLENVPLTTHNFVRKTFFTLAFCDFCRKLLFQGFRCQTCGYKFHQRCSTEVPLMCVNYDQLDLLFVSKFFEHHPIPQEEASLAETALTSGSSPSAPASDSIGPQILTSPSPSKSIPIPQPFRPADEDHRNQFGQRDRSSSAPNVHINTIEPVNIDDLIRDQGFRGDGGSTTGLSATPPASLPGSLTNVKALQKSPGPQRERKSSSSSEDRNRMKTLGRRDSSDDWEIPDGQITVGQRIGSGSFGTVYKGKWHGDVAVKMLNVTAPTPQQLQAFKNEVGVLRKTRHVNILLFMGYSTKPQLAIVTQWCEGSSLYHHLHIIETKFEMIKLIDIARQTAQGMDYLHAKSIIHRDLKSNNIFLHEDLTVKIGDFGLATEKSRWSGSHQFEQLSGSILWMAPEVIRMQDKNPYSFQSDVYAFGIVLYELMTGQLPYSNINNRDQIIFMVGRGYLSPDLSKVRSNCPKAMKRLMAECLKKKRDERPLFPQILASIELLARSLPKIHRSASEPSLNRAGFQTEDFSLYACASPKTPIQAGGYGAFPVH

| SMILES | EC50 ([1]; Homo sapiens) | IC50 (V599E Raf) | EC50 [1] |
| --- | --- | --- | --- |
| C[C@@H](NC(=O)c1cnn2ccccc12)c1cc(C(=O)Nc2cccc(OC(F)(F)F)c2)on1 [Example 217] | 100 to 1000 nM | ≤ 100 nM |  |
| Cc1ccc(NC(=O)c2cc([C@@H](C)NC(=O)c3cnn4ccccc34)no2)cc1C(F)(F)F [Example 218] | ≤ 100 nM | ≤ 100 nM |  |
| Cc1cc2nc(NC(=O)c3cc([C@@H](C)NC(=O)c4cnn5ccccc45)no3)[nH]c2cc1C [Example 219] | 100 to 1000 nM | 100 to 1000 nM |  |
| C[C@@H](NC(=O)c1cnn2ccccc12)c1cc(C(=O)Nc2ccc(Cl)c(C(F)(F)F)c2)on1 [Example 220] | 100 to 1000 nM | ≤ 100 nM |  |
| Cc1ccc(NC(=O)c2cc([C@@H](C)NC(=O)c3cnn4cccnc34)no2)cc1C(F)(F)F [Example 221] | 100 to 1000 nM | 100 to 1000 nM |  |
| CC(NC(=O)c1cnn2ccccc12)c1ncc(C(=O)Nc2ccc(Cl)c(C(F)(F)F)c2)s1 (stereo not shown) [Example 222] | ≤ 100 nM | 100 to 1000 nM |  |
| CC(NC(=O)c1cnn2ccccc12)c1ncc(C(=O)Nc2cc(C(F)(F)F)c(Cl)cn2)s1 (stereo not shown) [Example 223] | ≤ 100 nM | 100 to 1000 nM |  |
| CC(NC(=O)c1cnn2ccccc12)c1cnc(Nc2ccc(C(F)(F)F)cc2)s1 (stereo not shown) [Example 224] | 100 to 1000 nM | ≤ 100 nM |  |
| CC(NC(=O)c1cnn2cccnc12)c1cnc(Nc2ccc(C(F)(F)F)cc2)s1 (stereo not shown) [Example 225] | 1000 to 10000 nM | ≤ 100 nM |  |
| Cc1ccc(NC(=O)c2cc([C@H](C)NC(=O)c3cnn4ccccc34)on2)cc1C(F)(F)F [Example 227] | 100 to 1000 nM | ≤ 100 nM |  |
| O=C(Nc1ccc(Cl)c(C(F)(F)F)c1)c1ccc(CNC(=O)c2cnn3ccccc23)cc1 [Example 231] | 1000 to 10000 nM | 100 to 1000 nM |  |
| CCn1cnc2cnc(C(=O)NC(C)c3cnc(Nc4ccc(Cl)c(C(F)(F)F)c4)cn3)cc21 (stereo not shown) [Example 233] | 100 to 1000 nM | ≤ 100 nM |  |
| CC(NC(=O)c1cc2c(cn1)ncn2C1CCC1)c1cnc(Nc2ccc(Cl)c(C(F)(F)F)c2)cn1 (stereo not shown) [Example 234] | 100 to 1000 nM | ≤ 100 nM |  |
| C[C@@H](NC(=O)c1cc2c(cn1)ncn2C)c1cnc(Nc2cnc(C(C)(C)C)nc2)s1 [Example 241] | ≤ 100 nM | ≤ 100 nM |  |
| CC(NC(=O)c1cc2c(cn1)ncn2C)c1cnc(Nc2cccc(S(=O)(=O)C(F)(F)F)c2)cn1 (stereo not shown) [Example 243] | ≤ 100 nM | ≤ 100 nM |  |
| COc1cc(C(F)(F)F)ccc1Nc1ncc(C(C)NC(=O)c2cc3c(cn2)ncn3C)s1 (stereo not shown) [Example 244] | ≤ 100 nM | ≤ 100 nM |  |
| CC(NC(=O)c1cc2c(cn1)ncn2C)c1cnc(Nc2ccc(C(F)(F)F)cc2Cl)s1 (stereo not shown) [Example 245] | ≤ 100 nM | ≤ 100 nM |  |
| CC(NC(=O)c1cc2c(cn1)ncn2C)c1cnc(Nc2cnc(C(F)(F)F)nc2)s1 (stereo not shown) [Example 261] | 100 to 1000 nM | ≤ 100 nM |  |
| CC(NC(=O)c1cc2c(cn1)ncn2C)c1cnc(Nc2ccc(C(F)(F)F)cn2)cn1 (stereo not shown) [Example 262] | 100 to 1000 nM | ≤ 100 nM |  |
| CC(NC(=O)c1cc2c(cn1)ncn2C)c1cnc(Nc2ccc(C(F)(F)F)nc2Cl)s1 (stereo not shown) [Example 263] | 100 to 1000 nM | ≤ 100 nM |  |
| CC(NC(=O)c1cc2c(cn1)ncn2C)c1cnc(Nc2ccc(C(F)(F)F)cn2)cn1 (stereo not shown) [Example 264] |  | ≤ 100 nM | 100 to 1000 nM |
| CC(NC(=O)c1cc2c(cn1)ncn2C)c1cnc(Nc2ccc(C(F)(F)F)cc2Cl)cn1 (stereo not shown) [Example 265a] | 100 to 1000 nM | ≤ 100 nM |  |
| COc1cc(C(F)(F)F)ccc1Nc1cnc(C(C)NC(=O)c2cc3c(cn2)ncn3C)cn1 (stereo not shown) [Example 265b] | 100 to 1000 nM | ≤ 100 nM |  |
| CC(NC(=O)c1cc2c(cn1)ncn2C)c1cnc(Nc2ccc(F)c(S(=O)(=O)C(F)(F)F)c2)cn1 (stereo not shown) [Example 268] | ≤ 100 nM | ≤ 100 nM |  |
| COc1nc(C(C)(C)C)ncc1Nc1ncc(C(C)NC(=O)c2cc3c(cn2)ncn3C)s1 (stereo not shown) [Example 270] | ≤ 100 nM | ≤ 100 nM |  |
| CC(NC(=O)c1cc2c(cn1)ncn2C)c1cnc(Nc2cccc(C(C)(C)C(F)(F)F)c2)cn1 (stereo not shown) [Example 273] | ≤ 100 nM | ≤ 100 nM |  |
| CC(NC(=O)c1cc2c(cn1)ncn2C)c1cnc(Nc2cc(S(=O)(=O)C(F)(F)F)ccc2Cl)cn1 (stereo not shown) [Example 276] | ≤ 100 nM | ≤ 100 nM |  |
| CC(NC(=O)c1cc2c(cn1)ncn2C)c1cnc(Nc2cc(C(C)(C)C)ccc2F)s1 (stereo not shown) [Example 279] | ≤ 100 nM | ≤ 100 nM |  |
| CNc1nc(C(C)(C)C)ncc1Nc1ncc(C(C)NC(=O)c2cc3c(cn2)ncn3C)s1 (stereo not shown) [Example 280] | 100 to 1000 nM | ≤ 100 nM |  |
